Assay results as given in patent US12257265B2, “Cyclic dinucleotide prodrug molecule, preparation method therefor and application thereof” (SHENZHEN YING BIOPHARMACEUTICAL CO., LTD., priority 2019, dated 2025).
Where two headings read alike, the source gives them in different places.

Tests used:
CT-26-Luc cells = assay: Anticancer activity assay in CT-26 mouse tumor model; format: in vivo, mice; details: 1 mg/kg intratumoral injection, once every two days, three times, FIG. 4 and FIG. 5
Procedure: Anticancer Activity Assay of the Compound 8
Mice: BABL/C female mice, weight 18 g to 22 g. The source is the animal experiment center in Guangdong province, and the mice are fed with pellet feed and freely eat and drink water.
Tumor Cell Lines: CT-26-Luc Cells […]
The administration method includes the following steps: the administration was started at the 10th day after tumor inoculation growth, and 50 microliters/mouse was administered once every two days for a total of three times by intratumoral injection. The growth of tumors in mice was detected by chemiluminescence using the IVIS Spectrum Imaging System. […] After imaging, fluorescence values were converted to photon numbers and the total number of fluorescence photons for each experimental group was counted. […] In which the numbers in FIG. 4a, FIG. 4b, FIG. 4c, FIG. 4d, FIG. 4e and FIG. 4f represent the total number of fluorescence photons in the circular region (ROI, region of interest), and FIG. 4g and FIG. 4h are statistical graphs of the total number of fluorescence photons for each experimental group, respectively. […]

[1] = tested on: type I interferon expression in THP-1 cells; details: reference compound 2′3′-RR-(AXA) in patent CN108430503A; read-out: EC50 value of the control drug; cited from earlier work
[2] = Determination of the oil-water partition coefficient log P (n-octanol/water, HPLC); format: physicochemical; details: pH 7; n-octanol / purified water (10 mM K2HPO4 pH7.0), HPLC peak area ratio, three repeats
Procedure: Determination of the Oil-Water Partition Coefficient Log P of the Two Cyclic Dinucleotide Prodrug Molecules.
1) Preparing the compound solution: a certain amount of the compound 8, the compound 16 and the compound cddA35 were weighed and dissolved in DMSO solutions respectively to prepare mother solutions with a concentration of 1 mg/mL. 2) 20 μL of the prepared mother liquor was added to an EP tube containing a mixture of 1 mL of n-octanol and 1 mL of purified water (10 mM K2HPO4 pH7.0), vortexed for 2 h with shaking, and allowed to stand overnight at 4° C. for phase separation, and 400 μL of solution from each phase was separated. Centrifuging at 3000 rpm for 5 min, filtering with corresponding […] filter membrane, measuring the two-phase absorption peak area under the same HPLC parameter condition, repeating the experiment for three times, and calculating log value of the peak area ratio of n-octyl alcohol phase and water phase to obtain the log P value of the target compound, as shown in Table 2.
HPLC conditions: the instrument used by an Agilent 1260 HPLC, column: Agilent ZORABX SB-C185 μm [4.6×150 mm], column temperature 25° C., sample injection 10 μL, detection wavelength was […], chromatographic gradient method as shown in Table 1 below.

[3] = tested on: type I interferon expression in THP-1 cells; assay: Type I interferon activity assay in monocytic cell line THP-1 (THP-1-Lucia) cells; format: cell-based; details: for EC50: Homo sapiens, THP-1, dose-response curves, serial dilutions, FIG. 3, read-out: EC50 causing type I interferon expression in THP-1 cell line
Procedure: Activity Assay of Two Cyclic Dinucleotide Prodrug Molecules in Monocytic Cell Line THP-1 Cells
The THP-1-Lucia cells confluency reached about 80%, and the compound 8, the compound 16 and the drug ADU-S100 are directly dissolved into a culture medium according to a certain concentration and added into a 24-well plate, wherein four wells are parallel. The cells were maintained under the culture condition of 37° C. and 5% CO2 for 24 h. After the end of the culture, luciferase activity was measured. Wherein, the test results of the type I interferon of the compound 8, the compound 16 and the drug ADU-S100 in the monocyte cell line THP-1 under the action concentration of 10 μM are shown in FIG. 2; EC50 values for the compound 8 and the compound 16 to cause type I interferon expression in THP-1 cell lines were then determined by dose-response curves for serial dilutions at various concentrations, as shown in FIG. 3.

STING = assay: Dual-fluorescence reporter gene activity assay in HEK293T cells (hSTING-wt, IFNβ promoter luciferase); format: cell-based, human; details: 5 μM, without any transfection reagent, 24 h, FIG. 1
Procedure: Activity assay of two cyclic dinucleotide prodrug molecules in HEK293T cells
The principle is as follows: dual-fluorescence reporter gene experiments: After entering a cell, the cyclic dinucleotide prodrug molecule passes through thioesterase in the cytoplasm of the cell or a reducing environment, so that thioester bond breakage or disulfide bond breakage is carried out, then an intermediate is obtained, a sulfur atom at a p position can nucleophilically attack a carbon atom at the a position, cyclic thioethane is removed, cyclic dinucleotides with a phosphodiester structure of a parent drug with negative charges are released, the intracellular STING protein is combined and activated, interferon regulatory factor 3 (IRF3) is phosphorylated, phosphorylated IRF3 enters into the nucleus and combined with the promoter region of a interferon-β gene to cause the expression of interferon, and based on these, the interferon gene promoter is introduced into a promoter of firefly luciferase, so that the cell activity of the prodrug molecule can be measured by using a dual-fluorescence reporter gene method.
(1) preparing the compound solution: the compound 8 and the compound 16 were dissolved in DMSO, respectively, to obtain a final concentration of 1 mM. cddA35 was dissolved in water and similarly prepared at a concentration of 1 mM. […]

SMILES	growth of the tumor in the mice (CT-26-Luc cells)	EC50 [1] [nM]	logP [2]	EC50 [3] [nM]	dual-fluorescence result: crossing cell membranes and activating STING pathway / expression of interferon (STING)	expression of type I interferon in THP-1 cell line ([3]; action concentration of 10 μM, without any transfection reagent, 24 h, FIG. 2, activity much higher than ADU-S100)
Nc1ncnc2c1ncn2[C@@H]1O[C@@H]2COP(=O)([S-])O[C@@H]3[C@H](O)[C@@H](COP([O-])(=S)O[C@H]2[C@H]1O)O[C@H]3n1cnc2c(N)ncnc21.[Na+].[Na+] (stereo partly shown) [ADU-S100]	only controlled	41500				
CC(C)(C)C(=O)SCCOP1(=O)OC[C@H]2O[C@@H](n3cnc4c(N)ncnc43)C[C@H]2OP(=O)(OCCSC(=O)C(C)(C)C)OC[C@H]2O[C@@H](n3cnc4c(N)ncnc43)CC2O1 (stereo partly shown) [Compound 8]			1.93	4.4		
Nc1ncnc2c1ncn2[C@H]1CC2OP(=O)(OCCSSc3ccccn3)OC[C@H]3O[C@@H](n4cnc5c(N)ncnc54)CC3OP(=O)(OCCSSc3ccccn3)OC[C@H]2O1 (stereo partly shown) [Compound 16]			0.85	355	can autonomously cross cell membranes without any transfection reagent	strong expression of type I interferon
Nc1ncnc2c1ncn2[C@H]1CC2OP(=O)(O)OC[C@H]3O[C@@H](n4cnc5c(N)ncnc54)CC3OP(=O)(O)OC[C@H]2O1 (stereo partly shown) [cddA35, reference compound]			-3.43		hardly crosses cell membranes	
